# Earlier results, collected in patent US7056858B2 (Varian, Inc., priority 2002, dated 2006).
# Conditions: for π value: dipolarity/dipolarizability descriptor; for Σα value: hydrogen-bond acidity descriptor; for Σβ value: hydrogen-bond basicity descriptor
SMILES,π value,Σα value,Σβ value
NC=O [formamide],0.46,0.33,0.21
CN1CCCC1=O [N-methylpyrrolidone],0.57,0.00,0.43
"CN(C)C=O [N,N dimethylformamide]",0.56,0.00,0.44
